Data reported in ChEMBL document CHEMBL4024705 (Bioorg Med Chem Lett, 2017).

Tests used:
Liver [1] = assay: Stability of the compound in rat liver microsomes assessed as compound remaining; format: ADME, microsome
Liver [2] = assay: Stability of the compound in mouse liver microsomes assessed as compound remaining; format: ADME, microsome
Liver [3] = assay: Stability of the compound in human liver microsomes assessed as compound remaining; format: ADME, microsome
[4] = Permeability of the compound by PAMPA; format: physicochemical; conditions: read-out: permeability

SMILES	Stability (Liver [1]) [%]	Stability (Liver [2]) [%]	Stability (Liver [3]) [%]	Papp [4] [×10⁻⁶ cm/s]
C[C@H]1COC(C)(C)C(=O)N1c1cc(-c2cc(C(F)(F)F)c3c(N)ncnn23)ccc1C#N	1	1	23	
C[C@H]1CN(c2cc(-c3cc(C(F)(F)F)c4c(N)ncnn34)ccc2C#N)C(=O)C(C)(C)O1	29	24	85	
C[C@H]1OC(C)(C)C(=O)N(c2cc(-c3cc(C(F)(F)F)c4c(N)ncnn34)ccc2C#N)[C@H]1C	2	4	50	65.9
C[C@@H]1CN(c2cc(-c3cc(Cl)c4c(N)ncnn34)ccc2C#N)C(=O)C(C)(C)O1	5	43	61	
C[C@@H]1COC(C)(C)C(=O)N1c1cc(-c2cc(Cl)c3c(N)ncnn23)ccc1C#N	25	28	92	
C[C@H]1CN(c2cc(-c3cc(Cl)c4c(N)ncnn34)ccc2C#N)C(=O)C(C)(C)O1	0	0	18	
[2H]C1([2H])OC(C)(C)C(=O)N(c2cc(-c3cc(C(F)(F)F)c4c(N)ncnn34)ccc2C#N)C1([2H])[2H]	75	74	91	
[2H]C([2H])([2H])C1([2H])N(c2cc(-c3cc(Cl)c4c(N)ncnn34)ccc2C#N)C(=O)C(C)(C)OC1([2H])[2H] (centres undefined)	34 to 37	0 to 28	83 to 87	
[2H]C([2H])([2H])C1([2H])N(c2cc(-c3cc(C(F)(F)F)c4c(N)ncnn34)ccc2C#N)C(=O)C(C)(C)OC1([2H])[2H] (centres undefined)	32 to 44	0 to 18	77 to 91	
CC[C@H]1COC(C)(C)C(=O)N1c1cc(-c2cc(Cl)c3c(N)ncnn23)ccc1C#N	4	1	53	
[2H]C1([2H])OC(C)(C)C(=O)N(c2cc(-c3cc(Cl)c4c(N)ncnn34)ccc2C#N)C1([2H])[2H]	76	58	94	
